Experimental data from patent US5089479A, “Adhesion of Mycoplasma pneumoniae and Mycoplasma hominus to sulfatide” (priority 1988, dated 1992).
Entries after “also recorded” stand apart in the source; their conditions may differ.

B1: Human type MM glycophorin: glycoprotein (protein, UniProt P02724 20-150, looked up)
Glycophorin-A: LSTTEVAMHTSTSSSVTKSYISSQTNDTHKRDTYAATPRAHEVSEISVRTVYPPEEETGERVQLAHHFSEPEITLIIFGVMAGVIGTILLISYGIRRLIKKSPSDVKPLPSPDTDVPLSSVEIENPETSDQ
modifications: MM blood type
notes: glycoprotein

Assays:
[1] = biological target: M. pneumoniae binding to laminin; assay: Inhibition of M. pneumoniae binding to laminin adsorbed on plastic; set-up: species or system Mycoplasma pneumoniae strain M129; conditions: laminin adsorbed on plastic
Description: (§1) Glycoproteins dissolved in 0.01 M sodium phosphate buffer, pH 7.4, containing 150 mM NaCl, 1 mM CaCl2, and 0.01% NaN3 were adsorbed onto plastic polyvinylchloride […] microtiter plates by incubation for 16 hours at 4° C. The unbound proteins were removed, and the wells were filled with tris-BSA and incubated for 30 minutes at room temperature. The wells were rinsed with RPMI1640 containing 25 mM HEPES, pH 7.3, and 1% bovine serum albumin. M. pneumoniae strain M129 labelled with [^3 H]-palmitate were dispersed in RPMI-BSA by passing four times through a 26 gauge needle, and 50 μl of the suspension was applied to the wells. After incubation for 60 minutes at 37° C., the wells were washed five times with saline and the labelled M. pneumoniae bound to the proteins were quantified by scintillation counting in Aquasol.
For inhibition studies, sugars in 25 μl of RPMI-BSA were added to wells coated with 10 μg/ml laminin followed by 25 μl of [^3 H]-M. pneumoniae. Binding was determined to both laminin-coated and uncoated wells in triplicate at each inhibitor concentration and in the absence of inhibitor. In some experiments, the adsorbed proteins were pretreated with neuraminidase. After adsorption of the proteins and incubation in tris-BSA, the wells were rinsed three times with 50 mM sodium acetate, pH 5.5, containing 150 mM NaCl, 5 mM CaCl2, 1 mg/ml bovine serum albumin, and 1 mM phenylmethanesulfonyl fluoride. The wells were incubated with 0.05 units/ml neuraminidase in the same buffer or with buffer without enzyme overnight at 20° C. The wells were rinsed three times with tris-BSA, and M. pneumoniae binding was determined as described above.

[2] = biological target: M. pneumoniae binding to sulfatide; assay: Inhibition of M. pneumoniae binding to sulfatide adsorbed on plastic; set-up: species or system Mycoplasma pneumoniae strain M129; conditions: for inhibition of binding to sulfatide (in words): sulfatide adsorbed on plastic
Description: Virulent M. pneumoniae strain M129, passage 5-15, were grown and metabolically labelled with [^3 H]palmitic acid, 12-17 Ci/mole, as described by Chandler et al. in Infect. Immun. 37: 942, 1982. The organisms were passed four times through a 26 gauge needle and suspended to approximately 10^7 cpm/ml of degassed RPMI 1640 medium containing 1% bovine serum albumin and 25 mM HEPES, pH 7.3.
The binding of M. pneumoniae to purified glycolipids immobilized in microtiter plates was measured as described by Krivan et al. in Proc. Natl. Acad. Sci., op. cit. Purified glycolipids were serially diluted in 25 μl of methanol containing 0.1 μg each of the auxiliary lipids cholesterol and phosphatidylcholine. After the solutions were dried by evaporation, the wells were filled with TBS-BSA, emptied after one hour, rinsed with RPMI-BSA, and incubated with 25 μl of [^3 H]-M. pneumoniae, approximately 10^7 cpm/ml RPMI-BSA. After incubation for two hours at 37° C., unless otherwise stated, the wells were washed five times with saline and bound M. pneumoniae was quantified by scintillation counting in Aquasol. For inhibition studies, various polysaccharides were serially diluted in […] of [^3 H]-M. pneumoniae.
To obtain the results shown in FIG. 4, polysaccharides were serially diluted in 25 μl of RPMI-BSA in microtiter wells previously coated with 1 μg of purified sulfatide. Binding was determined after incubation of two hours at 37° C. with 25 μl of [^3 H]-M. pneumoniae with the indicated concentration of dextran ( .circle. ) or dextran sulfate.

[3] = tested on: M. pneumoniae adhesion to MRC5 lung fibroblasts; assay: Inhibition of M. pneumoniae adhesion to MRC5 lung fibroblasts; assay type: cell-based, human; conditions: mean of three experiments
Description: (§2) Adhesion of [^3 H]-M. pneumoniae to cells on glass covered slips was measured by a modification of a method previously described by Chandler et al., Infect. Immun., op. cit. WiDr human colon adenocarcinoma, ATCC CCL 218 was grown in Eagle's minimal essential medium with 10% fetal calf serum in a 5% CO2 atmosphere at 37° C. The cells were removed with trypsin and plated on 12 mm round glass coverslips in 24-well tissue culture plates and grown for three days. Control coverslips were preincubated in medium without cells. The coverslips were washed in serum-free medium, then incubated in RPMI-BSA for fifteen minutes. The medium was removed and labelled M. pneumoniae suspended in 0.5 ml of RPMI-BSA were added to each well. The plates were incubated on a rocking table for 60 minutes at 37° C. The coverslips were washed by dipping in saline six times, and the bound radioactive bacteria were determined by scintillation counting. For inhibition studies, the inhibitors were added to M. pneumoniae prior to adding the bacteria to the coverslips.
Because virulent strains of M. pneumoniae adhere to mammalian cells, monolayers of WiDr cells were used to determine if dextran sulfate inhibits adhesion of the organism. [^3 H] -labelled M. pneumoniae was incubated with WiDr cell monolayers attached to coverslips in triplicate with an without dextran sulfate, as shown in Table II. […]

[4] = tested on: M. pneumoniae adhesion to WiDr cells; assay: Inhibition of M. pneumoniae adhesion to WiDr human colon adenocarcinoma cell monolayers; assay type: cell-based; conditions: WiDr cells
Description: as §2
Because virulent strains of M. pneumoniae adhere to mammalian cells, monolayers of WiDr cells were used to determine if dextran sulfate inhibits adhesion of the organism. [^3 H] -labelled M. pneumoniae was incubated with WiDr cell monolayers attached to coverslips in triplicate with an without dextran sulfate, as shown in Table II. […] In each experiment, 10 μg/ml dextran sulfate inhibited more than 1 μg/ml, but 100 μg/ml dextran sulfate caused no further inhibition. Thus, maximal inhibition was obtained with approximately 10 μg/ml of dextran sulfate. Similar results were obtained with MRC5 lung fibroblasts where in three experiments a mean of 47% of M. pneumoniae adhesion was inhibited by dextran sulfate.
(§3) Adhesion of labelled M. pneumoniae to WiDr cells on glass cover slips was determined as described previously. For inhibition studies, dextran sulfate and 3'-sialyllactose were dissolved in RPMI-BSA and the pH was adjusted to 7.4 with NaOH. The inhibitors were added to wells containing washed cover slips with attached WiDr cells or blank cover slips preincubated in medium or tris-BSA. Labelled M. pneumoniae were added immediately and incubated with slow rocking for sixty minutes at 37° C. After the coverslips were washed by dipping six times in saline, bound M. pneumoniae were determined by scintillation counting in Aquasol. […] After washing to remove the unbound organisms, the bound mycoplasma were determined by scintillation counting. Binding to uncoated wells was 3% of the applied radioactivity.
Adhesion of [^3 H]-M. pneumoniae to WiDr cells growing on 13 mm glass cover slips was determined as described above. Inhibition by dextran sulfate or 3'-sialyllactose at the indicated concentrations was calculated relative to control binding determined in RPMI/BSA without inhibitors. The results are presented as percent inhibition (mean±S.D. n=4 with n=8 for determination of control binding without inhibitor).

[5] = tested on: M. pneumoniae adhesion to coverslips; assay: Inhibition of nonspecific adhesion of M. pneumoniae to coverslips without cells; assay type: binding, Mycoplasma pneumoniae strain M129; conditions: coverslips preincubated in medium containing fetal calf serum
Description: as §2, §3

[6] = tested on: M. hominus adhesion to human colon adenocarcinoma cells; assay: Inhibition of M. hominus adhesion to cultured human colon adenocarcinoma cells; assay type: cell-based
[7] = tested on: M. hominus binding to sulfatide; assay: Inhibition of M. hominus binding to purified sulfatide; set-up: species or system Mycoplasma hominus
M. pneumoniae = M. pneumoniae adhesion to immobilized glycoproteins adsorbed on plastic; assay type: binding, Mycoplasma pneumoniae strain M129; conditions: for M. pneumoniae adhesion to immobilized glycoprotein (in words): adsorbed on plastic
Description: as §1, with “Aquasol. […]” for “Aquasol.”

[8] = tested on: monoclonal antibody My-28; assay: Binding of monoclonal antibody My-28 to immobilized proteins after neuraminidase; conditions: neuraminidase-treated, adsorbed on plastic
Description: Binding of monoclonal antibody My-28 to the immobilized proteins before or after digestion with neuraminidase was determined using a 1:1000 dilution of ascites fluid in tris-BSA. After incubation for two hours at room temperature, the wells were washed three times with tris-BSA. Bound antibody was detected using goat anti-mouse IgM labelled with ^125 I by the Iodogen method.

[9] = tested on: erythrocyte adhesion to M. pneumoniae; conditions: relative to fetuin; Loomes et al.; cited from earlier work

Row | Molecule | I.D.50, substrate laminin [1] [µg/mL] | inhibition of binding to laminin (in words) [1] | inhibition of binding to laminin (in words) ([1]; listed as Dextran sulfate) | concentration inhibiting binding to sulfatide by 50% ([2]; 1 μg sulfatide, 37° C., 2 hours) [µg/mL] | inhibition of binding to sulfatide at 1 μg/ml (in words) ([2]; 1 μg/ml) | inhibition of binding to sulfatide (in words) [2] | inhibition of binding to sulfatide (in words) ([2]; listed as Dextran sulfate) | inhibition of M. pneumoniae adhesion [3] [%] | concentration giving maximal inhibition of adhesion [4] | inhibition of adhesion to WiDr cells (in words) [4] | inhibition of adhesion to WiDr cells (in words) ([4]; listed as Dextran sulfate) | inhibition of non-specific adhesion to coverslips (in words) [5] | inhibition of M. hominus adhesion (in words) [6] | inhibition of M. hominus binding to sulfatide (in words) [7] | M. pneumoniae adhesion to immobilized glycoprotein (in words) (M. pneumoniae; listed as Glycophorin) | M. pneumoniae adhesion to immobilized glycoprotein (in words) (M. pneumoniae; listed as glycophorin) | Relative binding activity (M. pneumoniae; relative to fetuin = 1.0, from amount for half maximal binding, mean of 2 or 3 experiments) | My-28 antibody binding after neuraminidase digestion (in words) [8] | inhibition of erythrocyte adhesion to M. pneumoniae (in words) [9]
1 | dextran sulfate | > 200 | no effect | does not inhibit attachment on laminin | 0.4 | completely abolished binding | potent inhibitor; also recorded: completely inhibits binding | inhibits M. pneumoniae binding to sulfatide | 47 | approximately 10 μg/ml | partially inhibit; also recorded: only partially inhibited; also recorded: partially inhibits adhesion; also recorded: partial inhibition | inhibited adhesion in all three experiments | not by dextran sulfate | partially inhibits adhesion | completely inhibits binding | – | – | – | – | –
2 | B1 | – | – | – | – | – | – | – | – | – | – | – | – | – | – | weakly active | neither protein binds M. pneumoniae well | 0.06 | about ten-fold less | inhibit erythrocyte adhesion to M. pneumoniae better than fetuin
